Assay [1] is described as follows: Late stage counterscreen results from the probe development effort to identify activators of signal transducer and activator of transcription 1 (STAT1): luminescence-based cell-based dose response assay to identify cytotoxic compounds. It counts as functional.
Assay [2] has as its target Cytochrome P450 3A4 (Homo sapiens, UniProt P08684).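 Note: CYP3A4 tested as one member of a cytochrome P450 panel screen.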
Assay [3] concerns the target Cytochrome P450 2C19 (Homo sapiens, UniProt P33261). In words: Cytochrome panel assay with activity outcomes. Panel member name: p450-cyp2c19 Compounds with AC50 equal or less than 10 uM are considered active. Conditions: read-out: AC50. It is filed as functional.
The target of assay [4] is Ephrin type-A receptor 4 (Mus musculus, UniProt Q03137). In words: EphA4 ligand-binding antagonists – biochemical, colorimetric, mouse EphA4, primary screen (AID 689). It is filed as functional.
Assay [5] deals with T1, Mannose-6-phosphate isomerase (Homo sapiens, UniProt P34949).
T1 sequence (P34949 whole entry): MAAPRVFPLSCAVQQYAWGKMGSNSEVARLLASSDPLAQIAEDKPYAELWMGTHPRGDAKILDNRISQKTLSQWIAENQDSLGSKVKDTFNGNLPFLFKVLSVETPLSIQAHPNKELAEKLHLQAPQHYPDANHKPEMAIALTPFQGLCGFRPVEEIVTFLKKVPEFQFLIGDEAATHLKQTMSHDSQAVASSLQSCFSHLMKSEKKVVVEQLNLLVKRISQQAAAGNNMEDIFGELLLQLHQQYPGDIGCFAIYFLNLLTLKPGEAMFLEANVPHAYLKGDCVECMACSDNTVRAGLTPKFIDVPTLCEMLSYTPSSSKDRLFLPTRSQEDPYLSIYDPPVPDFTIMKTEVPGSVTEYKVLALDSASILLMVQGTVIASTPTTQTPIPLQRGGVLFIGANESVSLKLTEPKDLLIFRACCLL
In words: MPI inhibition at elevated mannose 6-phosphate – biochemical, fluorescence intensity, high mannose 6-phosphate, primary screen (AID 1220).

Assay [6] can be described thus: fluconazole-exposed Candida albicans growth modulators – fluorescence, retest, confirmation (AID 2467). It counts as functional, cell-based.
The nature of assay [7]: Luminescent dose response cell-based high throughput screening assay for inhibitors of the Janus kinase 2 mutant JAK2V617F. [Related pubchem assays: 1446 (Primary screen.), 1521 (Confirmation assay.), 1486 (Counter screen.)]. It counts as functional. A general note: A counterscreen serves to expose hits that act by an unwanted route or on another target.
A short description of assay [8]: NIH-3T3 fibroblast cytotoxicity, dose response, cytotoxicity control, cell-based, fluorescence, Alamar Blue, secondary assay (AID 2327).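 Note: NIH-3T3 mouse fibroblasts cultured with fluconazole at 8 µg/mL.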 It counts as functional.
The target of assay [9] is T2, Histone-lysine N-methyltransferase NSD2 (Homo sapiens, UniProt O96028).
T2 sequence (O96028 whole entry): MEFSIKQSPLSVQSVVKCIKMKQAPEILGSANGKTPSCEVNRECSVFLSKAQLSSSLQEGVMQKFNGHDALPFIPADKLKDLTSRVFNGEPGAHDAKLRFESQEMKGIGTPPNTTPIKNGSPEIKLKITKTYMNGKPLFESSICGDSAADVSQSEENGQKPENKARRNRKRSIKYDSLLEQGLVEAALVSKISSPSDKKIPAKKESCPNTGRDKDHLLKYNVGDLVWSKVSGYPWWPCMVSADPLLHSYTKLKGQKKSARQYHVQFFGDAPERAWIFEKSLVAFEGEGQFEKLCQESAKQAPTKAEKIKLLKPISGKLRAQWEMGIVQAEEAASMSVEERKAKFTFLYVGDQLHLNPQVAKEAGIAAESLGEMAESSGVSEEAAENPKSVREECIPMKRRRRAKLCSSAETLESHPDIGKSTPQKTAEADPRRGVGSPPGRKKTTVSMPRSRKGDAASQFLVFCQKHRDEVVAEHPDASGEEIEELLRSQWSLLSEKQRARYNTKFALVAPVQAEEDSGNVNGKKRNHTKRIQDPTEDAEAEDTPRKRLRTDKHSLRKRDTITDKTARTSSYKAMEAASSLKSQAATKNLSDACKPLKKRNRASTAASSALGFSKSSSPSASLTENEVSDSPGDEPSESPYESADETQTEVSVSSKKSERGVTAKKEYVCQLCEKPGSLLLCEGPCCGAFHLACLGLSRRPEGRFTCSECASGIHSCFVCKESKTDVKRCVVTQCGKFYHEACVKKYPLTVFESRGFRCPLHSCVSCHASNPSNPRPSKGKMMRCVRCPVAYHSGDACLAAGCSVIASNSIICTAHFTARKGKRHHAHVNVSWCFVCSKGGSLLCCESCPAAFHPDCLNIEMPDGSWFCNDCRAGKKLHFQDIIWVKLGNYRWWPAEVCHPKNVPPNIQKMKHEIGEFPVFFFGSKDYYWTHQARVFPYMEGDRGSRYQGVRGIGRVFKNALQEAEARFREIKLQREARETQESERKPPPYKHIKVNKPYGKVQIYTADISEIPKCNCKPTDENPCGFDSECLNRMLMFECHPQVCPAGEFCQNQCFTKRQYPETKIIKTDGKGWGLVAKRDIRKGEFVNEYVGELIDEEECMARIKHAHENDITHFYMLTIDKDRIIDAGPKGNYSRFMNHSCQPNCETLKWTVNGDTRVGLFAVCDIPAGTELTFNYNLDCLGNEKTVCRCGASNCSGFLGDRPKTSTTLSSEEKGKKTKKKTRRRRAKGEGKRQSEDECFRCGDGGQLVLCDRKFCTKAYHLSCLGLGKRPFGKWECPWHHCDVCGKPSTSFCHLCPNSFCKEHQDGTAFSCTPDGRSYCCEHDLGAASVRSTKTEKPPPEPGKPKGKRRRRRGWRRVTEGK
It counts as biochemical.

Assay [10] has as its target Induced myeloid leukemia cell differentiation protein Mcl-1 (Homo sapiens, UniProt Q07820). It is filed as functional.
The target of assay [11] is Voltage-gated inwardly rectifying potassium channel KCNH2 (Homo sapiens, UniProt Q12809). As to the kind of experiment: concentration-dependent hERG rescue from blockers – cell-based, thallium flux, dose response (AID 2121). It is filed as ADME.

Activity calls are given as the source filed them. Some results are limits rather than exact numbers.

Sequence of Induced myeloid leukemia cell differentiation protein Mcl-1 (Q07820 whole entry): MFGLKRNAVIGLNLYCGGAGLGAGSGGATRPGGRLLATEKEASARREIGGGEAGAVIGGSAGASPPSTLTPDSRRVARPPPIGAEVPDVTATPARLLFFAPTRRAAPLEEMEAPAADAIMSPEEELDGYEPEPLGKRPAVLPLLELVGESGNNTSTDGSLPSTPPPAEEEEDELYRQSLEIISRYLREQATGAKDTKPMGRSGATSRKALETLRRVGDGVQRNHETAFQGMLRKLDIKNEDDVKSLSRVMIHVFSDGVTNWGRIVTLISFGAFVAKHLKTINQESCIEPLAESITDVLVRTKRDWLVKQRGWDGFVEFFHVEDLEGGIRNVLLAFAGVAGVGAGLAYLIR
Sequence of Cytochrome P450 2C19 (P33261 whole entry): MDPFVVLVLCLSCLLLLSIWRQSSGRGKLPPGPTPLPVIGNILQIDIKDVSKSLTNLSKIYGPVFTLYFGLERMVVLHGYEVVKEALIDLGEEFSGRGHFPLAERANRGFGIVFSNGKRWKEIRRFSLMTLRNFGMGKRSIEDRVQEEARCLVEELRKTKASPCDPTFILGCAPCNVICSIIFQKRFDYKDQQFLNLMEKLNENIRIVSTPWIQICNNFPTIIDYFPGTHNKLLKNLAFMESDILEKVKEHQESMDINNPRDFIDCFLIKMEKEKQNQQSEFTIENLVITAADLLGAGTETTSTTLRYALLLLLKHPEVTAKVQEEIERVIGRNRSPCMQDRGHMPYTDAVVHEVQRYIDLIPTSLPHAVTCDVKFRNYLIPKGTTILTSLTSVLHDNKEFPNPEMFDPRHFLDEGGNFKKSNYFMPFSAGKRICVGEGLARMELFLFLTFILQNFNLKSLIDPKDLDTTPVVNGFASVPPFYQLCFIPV
Sequence of Ephrin type-A receptor 4 (Q03137 whole entry): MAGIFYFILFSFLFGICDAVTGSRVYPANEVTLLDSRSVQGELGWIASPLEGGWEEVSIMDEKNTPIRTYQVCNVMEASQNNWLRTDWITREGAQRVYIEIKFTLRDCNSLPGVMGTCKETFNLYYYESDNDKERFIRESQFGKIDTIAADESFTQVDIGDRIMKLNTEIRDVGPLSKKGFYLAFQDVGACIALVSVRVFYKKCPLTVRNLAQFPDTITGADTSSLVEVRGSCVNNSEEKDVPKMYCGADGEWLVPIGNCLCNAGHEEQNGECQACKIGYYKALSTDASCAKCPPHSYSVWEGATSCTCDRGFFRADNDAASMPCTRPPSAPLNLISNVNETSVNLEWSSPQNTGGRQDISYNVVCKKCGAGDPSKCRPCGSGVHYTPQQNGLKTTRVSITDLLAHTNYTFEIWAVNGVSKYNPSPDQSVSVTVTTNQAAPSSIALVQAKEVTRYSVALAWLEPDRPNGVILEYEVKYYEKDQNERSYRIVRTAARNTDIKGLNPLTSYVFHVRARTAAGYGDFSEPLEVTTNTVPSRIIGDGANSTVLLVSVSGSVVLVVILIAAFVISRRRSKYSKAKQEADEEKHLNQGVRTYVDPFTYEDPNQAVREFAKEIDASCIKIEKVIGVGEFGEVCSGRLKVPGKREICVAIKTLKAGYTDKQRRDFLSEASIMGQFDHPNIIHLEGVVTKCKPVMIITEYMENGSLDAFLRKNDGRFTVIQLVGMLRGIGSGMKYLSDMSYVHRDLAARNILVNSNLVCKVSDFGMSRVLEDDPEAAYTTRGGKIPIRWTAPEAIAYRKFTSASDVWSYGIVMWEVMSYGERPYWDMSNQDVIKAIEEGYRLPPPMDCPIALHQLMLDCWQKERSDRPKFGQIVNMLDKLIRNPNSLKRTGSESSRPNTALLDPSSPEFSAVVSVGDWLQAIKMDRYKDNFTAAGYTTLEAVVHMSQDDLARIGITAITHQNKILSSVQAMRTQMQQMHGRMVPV
Sequence of Cytochrome P450 3A4 (P08684 whole entry): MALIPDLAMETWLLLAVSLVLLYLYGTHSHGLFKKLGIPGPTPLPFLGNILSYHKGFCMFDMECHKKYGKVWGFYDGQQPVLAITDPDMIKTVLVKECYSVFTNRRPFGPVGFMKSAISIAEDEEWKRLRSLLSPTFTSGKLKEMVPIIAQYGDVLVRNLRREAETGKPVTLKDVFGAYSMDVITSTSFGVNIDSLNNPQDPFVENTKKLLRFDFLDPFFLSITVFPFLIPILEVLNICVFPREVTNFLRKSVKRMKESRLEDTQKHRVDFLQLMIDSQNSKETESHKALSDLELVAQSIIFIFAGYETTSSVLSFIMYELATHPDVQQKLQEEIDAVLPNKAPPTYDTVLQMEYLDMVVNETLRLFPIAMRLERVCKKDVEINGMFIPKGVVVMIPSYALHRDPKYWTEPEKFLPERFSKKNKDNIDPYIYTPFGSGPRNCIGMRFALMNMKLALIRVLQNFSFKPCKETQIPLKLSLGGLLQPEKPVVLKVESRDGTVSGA
Sequence of Voltage-gated inwardly rectifying potassium channel KCNH2 (Q12809 whole entry): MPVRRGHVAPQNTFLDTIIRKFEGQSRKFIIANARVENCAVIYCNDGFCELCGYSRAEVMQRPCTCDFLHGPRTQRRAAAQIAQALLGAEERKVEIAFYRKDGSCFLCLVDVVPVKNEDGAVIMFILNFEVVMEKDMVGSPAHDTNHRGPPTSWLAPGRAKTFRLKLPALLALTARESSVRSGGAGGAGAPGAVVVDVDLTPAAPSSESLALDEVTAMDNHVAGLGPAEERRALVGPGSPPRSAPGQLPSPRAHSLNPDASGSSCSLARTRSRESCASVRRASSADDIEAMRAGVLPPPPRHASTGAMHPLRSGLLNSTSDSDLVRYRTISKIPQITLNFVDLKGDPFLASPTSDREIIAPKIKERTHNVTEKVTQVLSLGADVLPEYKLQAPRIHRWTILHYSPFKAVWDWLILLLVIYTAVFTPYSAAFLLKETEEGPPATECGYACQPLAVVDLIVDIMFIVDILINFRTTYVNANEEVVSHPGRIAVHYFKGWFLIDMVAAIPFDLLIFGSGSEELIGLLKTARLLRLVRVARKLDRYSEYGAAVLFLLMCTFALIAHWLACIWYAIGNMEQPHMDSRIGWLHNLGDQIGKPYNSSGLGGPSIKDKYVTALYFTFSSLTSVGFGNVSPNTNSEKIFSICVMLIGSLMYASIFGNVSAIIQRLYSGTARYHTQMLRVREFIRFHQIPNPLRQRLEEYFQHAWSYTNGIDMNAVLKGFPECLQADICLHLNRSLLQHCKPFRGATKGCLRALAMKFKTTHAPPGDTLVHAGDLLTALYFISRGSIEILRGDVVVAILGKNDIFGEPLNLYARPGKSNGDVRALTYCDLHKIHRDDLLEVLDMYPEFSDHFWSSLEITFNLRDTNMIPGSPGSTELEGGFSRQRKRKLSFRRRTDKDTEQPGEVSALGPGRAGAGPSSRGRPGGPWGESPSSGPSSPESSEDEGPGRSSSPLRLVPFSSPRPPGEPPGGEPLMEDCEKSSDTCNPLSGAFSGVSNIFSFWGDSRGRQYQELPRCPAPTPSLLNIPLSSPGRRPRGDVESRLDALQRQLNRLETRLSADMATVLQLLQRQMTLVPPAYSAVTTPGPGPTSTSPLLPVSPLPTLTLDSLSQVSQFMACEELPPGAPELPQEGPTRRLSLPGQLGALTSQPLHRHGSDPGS

As a reminder, the IC50 is the concentration that gives 50% inhibition. Regarding `COc1ccc(-c2csc(N3C(=O)CNC3=S)n2)cc1`, the IC50 in [1] was > 55.7 µM (not active).
As a reminder, the AC50 is the concentration at which the activity in the assay is half-maximal. On to `CCOC(=O)c1c(N=C(S)Nc2ccccc2)sc2c1CCN(CCc1ccccc1)C2`, for which the AC50 in [2] and in assay [3] was 22.4 µM (inconclusive) each time. Moreover, the IC50 in assay [4] was 14.7 µM (active).
The EC50 is the concentration giving half of the maximal effect. `Cc1c(Cc2ccccc2)c(=O)oc2c(O)c(O)ccc12`: the IC50 in [5] was 29.6 µM (active); in [7] it was 2.67 µM (active); in assay [10], 11.7 µM (not active). Also, the EC50 is 2.73 µM (active) in [6] and 18.7 µM (active) in [8]. For the same compound, in assay [9], the AC50 is > 20 µM (inactive).
Turning to `Cc1onc(-c2ccccc2)c1C(=O)NC(=S)Nc1sc2c(c1C#N)CCC(C)C2` (stereo unspecified), in [11], the EC50 was 860 nM (active).

(Values after ChEMBL document CHEMBL1201862, “PubChem BioAssay data set” (2004).)
